From PMC8286840, “Identifying SARS-CoV-2 antiviral compounds by screening for small molecule inhibitors of Nsp3 papain-like protease” (Biochemical Journal, 2021)
Counter-ions that a name gives are not always drawn. Like-named read-outs stand apart in the source and are kept apart here.

How the values were obtained:
[1] = biological target: T1, SARS-CoV-2 PLpro (nsp3 1564–1878) (Severe acute respiratory syndrome coronavirus 2, UniProt P0DTD1); assay: biochemical; parameters: FRET-quenched peptide (Pro3) cleavage by PLpro, 10 min pre-incubation, slope over 20 min, normalised to no-compound control; conditions: read-out: % of control remaining
[2] = biological target: T1, SARS-CoV-2 PLpro (nsp3 1564–1878); assay: biochemical; parameters: FRET-quenched peptide (Pro3) cleavage by PLpro, 10 min pre-incubation, slope over 20 min, normalised to no-compound control; conditions: read-out: % of control remaining; remark: listed apart in the source

`NCC(=O)O` [Glycine] was tested, and the remaining activity at 1.25 µM ([1]; Well no.=7699, low concentration screen) was 106% and the remaining activity at 3.75 µM ([2]; Well no.=7699, high concentration screen) was 108%.

`CN1CCN(CCc2ccc(Cl)c(Cl)c2)CC1` [BD1063 (dhydrochloride)] showed a remaining activity at 1.25 µM ([1]; Well no.=8057, low concentration screen) of 90.2% and a remaining activity at 3.75 µM ([2]; Well no.=8057, high concentration screen) of 95.3%.

`N#Cc1c(-c2ccccc2)no[n+]1[O-]` [4-Phenyl-3-furoxancarbonitrile] gave a remaining activity at 1.25 µM ([1]; Well no.=998, low concentration screen) of 97.8% and a remaining activity at 3.75 µM ([2]; Well no.=998, high concentration screen) of 97.8%.

For `CC1=NN(c2ccc(C(=O)O)cc2)C(=O)/C1=C\c1ccc(-c2cc(C)c(C)cc2[N+](=O)[O-])o1` [C646], the remaining activity at 1.25 µM ([1]; Well no.=5456, low concentration screen) was 98.3% and the remaining activity at 3.75 µM ([2]; Well no.=5456, high concentration screen) was 101%.

`C[C@]12CCC(=O)C=C1CC[C@@H]1[C@@H]2C(=O)C[C@@]2(C)[C@H]1CC[C@]2(O)C(=O)CO` [Cortisone] gave a remaining activity at 1.25 µM ([1]; Well no.=381, low concentration screen) of 90.6%, a remaining activity at 1.25 µM ([1]; Well no.=6485, low concentration screen) of 101% and a remaining activity at 1.25 µM ([1]; Well no.=7431, low concentration screen) of 102%. It also gave a remaining activity at 3.75 µM ([2]; Well no.=381, high concentration screen) of 93.5%, a remaining activity at 3.75 µM ([2]; Well no.=6485, high concentration screen) of 101% and a remaining activity at 3.75 µM ([2]; Well no.=7431, high concentration screen) of 100%.

In the case of `COc1ccc(CCN(C)CCCC(C#N)(c2ccc(OC)c(OC)c2)C(C)C)cc1OC` (racemic), the remaining activity at 1.25 µM ([1]; Well no.=1336, low concentration screen) is reported as 104% and the remaining activity at 3.75 µM ([2]; Well no.=1336, high concentration screen) is reported as 101%.

With `COc1ccc(-c2nc(-c3cc(C(F)(F)F)cc(C(F)(F)F)c3)n(Cc3ccc(C(N)=O)cc3)c2-c2ccc(OC)cc2)cc1` [Apoptozole] the remaining activity at 1.25 µM ([1]; Well no.=6596, low concentration screen) was 102%, the remaining activity at 1.25 µM ([1]; Well no.=8536, low concentration screen) was 98.3% and the remaining activity at 3.75 µM ([2]; Well no.=6596, high concentration screen) was 92.9%. It also gave a remaining activity at 3.75 µM ([2]; Well no.=8536, high concentration screen) of 90.1%.

With `COc1cccc(-c2cn(-c3ccc(CCN4CCC(O)CC4)cc3)c3ncnc(N)c23)c1` [CGP77675] the remaining activity at 1.25 µM ([1]; Well no.=5466, low concentration screen) was 93.4% and the remaining activity at 3.75 µM ([2]; Well no.=5466, high concentration screen) was 99.9%.

`C#C[C@]1(O)CC[C@H]2[C@@H]3CCC4=CC(=O)CCC4=C3C=C[C@@]21CC` [Gestrinone] gave a remaining activity at 1.25 µM ([1]; Well no.=1792, low concentration screen) of 101% and a remaining activity at 3.75 µM ([2]; Well no.=1792, high concentration screen) of 99.3%.

`CSc1ccc2c(c1)N(CCC1CCCCN1C)c1ccccc1S2` (stereo not shown) [Thioridazine] gave a remaining activity at 1.25 µM ([1]; Well no.=2140, low concentration screen) of 97.3% and a remaining activity at 3.75 µM ([2]; Well no.=2140, high concentration screen) of 96.6%.

For `C=C(C)[C@@H]1[C@H]2OC(=O)[C@@H]1[C@]1(O)C[C@H]3O[C@]34C(=O)O[C@H]2[C@]14C` [Picrotoxinin], the remaining activity at 1.25 µM [1] was 101% and the remaining activity at 3.75 µM [2] was 101%.

For `O=C(CCNNC(=O)c1ccncc1)NCc1ccccc1` [Nialamide], the remaining activity at 1.25 µM ([1]; Well no.=1091, low concentration screen) was 95.4%, the remaining activity at 1.25 µM ([1]; Well no.=1837, low concentration screen) was 97.6% and the remaining activity at 3.75 µM ([2]; Well no.=1091, high concentration screen) was 93.8%. It also gave a remaining activity at 3.75 µM ([2]; Well no.=1837, high concentration screen) of 97.3%.

Work on `Nc1ccc(C(=O)O)c(O)c1` [4-Aminosalicylic acid] yielded a remaining activity at 1.25 µM ([1]; Well no.=2119, low concentration screen) of 99.3% and a remaining activity at 3.75 µM ([2]; Well no.=2119, high concentration screen) of 101%.

Work on `CC(C)(N)C(=O)N[C@H](COCc1ccccc1)C(=O)N1CCC2(CC1)CN(S(C)(=O)=O)c1ccccc12` [Ibutamoren (Mesylate)] yielded a remaining activity at 1.25 µM ([1]; Well no.=6186, low concentration screen) of 98.5% and a remaining activity at 3.75 µM ([2]; Well no.=6186, high concentration screen) of 94.2%.

`C[C@]12CCC(=O)C=C1CC[C@@H]1[C@@H]2[C@@H](O)C[C@@]2(C)[C@H]1CC[C@]2(O)C(=O)CO` [Hydrocortisone] showed a remaining activity at 1.25 µM ([1]; Well no.=562, low concentration screen) of 101%, a remaining activity at 1.25 µM ([1]; Well no.=2212, low concentration screen) of 93% and a remaining activity at 1.25 µM ([1]; Well no.=6439, low concentration screen) of 99.3%. It also gave a remaining activity at 1.25 µM ([1]; Well no.=7331, low concentration screen) of 93.2%, a remaining activity at 3.75 µM ([2]; Well no.=562, high concentration screen) of 101% and a remaining activity at 3.75 µM ([2]; Well no.=2212, high concentration screen) of 96%. It also gave a remaining activity at 3.75 µM ([2]; Well no.=6439, high concentration screen) of 102% and a remaining activity at 3.75 µM ([2]; Well no.=7331, high concentration screen) of 93.7%.

Work on `Cc1ccc(-c2n[nH]c3c2C(c2cccc(O)c2)N(c2ccc(C(=O)O)cc2)C3=O)cc1` (stereo not shown) [CID 16020046] yielded a remaining activity at 1.25 µM ([1]; Well no.=7821, low concentration screen) of 96.2% and a remaining activity at 3.75 µM ([2]; Well no.=7821, high concentration screen) of 102%.

`O=c1ccn([C@@H]2O[C@H](COP(=O)(O)O)[C@@H](O)[C@H]2O)c(=O)[nH]1` [Uridine 5'-monophosphate] was tested, and the remaining activity at 1.25 µM ([1]; Well no.=7495, low concentration screen) was 103%, the remaining activity at 1.25 µM ([1]; Well no.=8889, low concentration screen) was 101% and the remaining activity at 3.75 µM ([2]; Well no.=7495, high concentration screen) was 103%. It also gave a remaining activity at 3.75 µM ([2]; Well no.=8889, high concentration screen) of 99%.

`N=c1ccn2c(n1)O[C@H]1[C@H](O)[C@@H](CO)O[C@H]12` [Cyclocytidine] gave a remaining activity at 1.25 µM ([1]; Well no.=1936, low concentration screen) of 96.5% and a remaining activity at 3.75 µM ([2]; Well no.=1936, high concentration screen) of 103%.

With `Oc1ccc2c3c1O[C@H]1c4[nH]c5ccccc5c4C[C@@]4(O)[C@@H](C2)N(CC2CC2)CC[C@]314` [Naltrindole.HCl] the remaining activity at 1.25 µM ([1]; Well no.=1644, low concentration screen) was 106% and the remaining activity at 3.75 µM ([2]; Well no.=1644, high concentration screen) was 104%.

In the case of `CCN(CC)CCOC(=O)C(Cc1cccc2ccccc12)CC1CCCO1` (stereo not shown) [Naftidrofuryl (oxalate)], the remaining activity at 1.25 µM ([1]; Well no.=7050, low concentration screen) is reported as 98% and the remaining activity at 3.75 µM ([2]; Well no.=7050, high concentration screen) is reported as 93.7%.

With `C[C@@H]([C@@H](O)c1ccc(O)cc1)N1CCC(O)(c2ccccc2)CC1` [CP-101,606] the remaining activity at 1.25 µM ([1]; Well no.=5843, low concentration screen) was 94.8% and the remaining activity at 3.75 µM ([2]; Well no.=5843, high concentration screen) was 93.1%.

For `CCOC(=O)C1=C(COCCN)NC(C)=C(C(=O)OC)C1c1ccccc1Cl` (stereo not shown) [Amlodipine], the remaining activity at 1.25 µM ([1]; Well no.=1711, low concentration screen) was 99.1% and the remaining activity at 3.75 µM ([2]; Well no.=1711, high concentration screen) was 99%.

`CCCCCCCCCCCCC/C=C/[C@@H](O)[C@H](CO)NC(=O)CCCCCCC` [C8 Ceramide] showed a remaining activity at 1.25 µM ([1]; Well no.=4255, low concentration screen) of 100% and a remaining activity at 3.75 µM ([2]; Well no.=4255, high concentration screen) of 99.1%.

`O=C(O)CCCCCCCCCCCCCCC(=O)O` [Hexadecanedioic acid] was tested, and the remaining activity at 1.25 µM ([1]; Well no.=6685, low concentration screen) was 104% and the remaining activity at 3.75 µM ([2]; Well no.=6685, high concentration screen) was 106%.

`CC(O)(P(=O)(O)O)P(=O)(O)O` [Etidronate] was tested, and the remaining activity at 1.25 µM ([1]; Well no.=2068, low concentration screen) was 96.4%, the remaining activity at 1.25 µM ([1]; Well no.=8826, low concentration screen) was 85.3% and the remaining activity at 3.75 µM ([2]; Well no.=2068, high concentration screen) was 97.5%. It also gave a remaining activity at 3.75 µM ([2]; Well no.=8826, high concentration screen) of 87.6%.

`O=C(O)CCC(CP(=O)(O)O)C(=O)O` (stereo not shown) [PMPA tetrasodium] gave a remaining activity at 1.25 µM ([1]; Well no.=1219, low concentration screen) of 105% and a remaining activity at 3.75 µM ([2]; Well no.=1219, high concentration screen) of 103%.

Work on `NC(=O)CC[C@H](N)C(=O)O` [L-Glutamine] yielded a remaining activity at 1.25 µM ([1]; Well no.=715, low concentration screen) of 96.1%, a remaining activity at 1.25 µM ([1]; Well no.=6899, low concentration screen) of 93.9% and a remaining activity at 1.25 µM ([1]; Well no.=7743, low concentration screen) of 102%. It also gave a remaining activity at 3.75 µM ([2]; Well no.=715, high concentration screen) of 93.2%, a remaining activity at 3.75 µM ([2]; Well no.=6899, high concentration screen) of 92.3% and a remaining activity at 3.75 µM ([2]; Well no.=7743, high concentration screen) of 104%.

Work on `CC(C)(C)C(=O)C(Oc1ccc(Cl)cc1)n1ccnc1` (stereo not shown) [Climbazole] yielded a remaining activity at 1.25 µM ([1]; Well no.=2269, low concentration screen) of 98.8% and a remaining activity at 3.75 µM ([2]; Well no.=2269, high concentration screen) of 99.5%.

`C[N+]1(C)[C@@H]2C[C@@H](OC(=O)C(O)(c3cccs3)c3cccs3)C[C@H]1[C@@H]1O[C@@H]12` [Tiotropium Bromide] was tested, and the remaining activity at 1.25 µM ([1]; Well no.=2108, low concentration screen) was 102% and the remaining activity at 3.75 µM ([2]; Well no.=2108, high concentration screen) was 102%.

`Cc1nc(N=Nc2ccc(C(=O)O)cc2)c(COP(=O)(O)O)c(C=O)c1O` [MRS 2159] was tested, and the remaining activity at 1.25 µM ([1]; Well no.=1030, low concentration screen) was 102% and the remaining activity at 3.75 µM ([2]; Well no.=1030, high concentration screen) was 101%.
